Legend:
Type in all cases: cell-based
E. coli (ATCC25922) [1] = test: Determination of the minimum inhibitory concentration (MIC); settings: Escherichia coli
Description: (§1) A colony of bacterium taken from agar plate is inoculated in Brain Hearth Infusion medium (BHI) and grown overnight at 37° C. The next day, the bacteria are diluted in fresh medium containing the phenol red indicator, up to a density of 10^6 bacteria/mL.
(§2) A stock solution of 2 mg/mL of compound is prepared in BHI medium containing phenol red.
(§3) In a 96-well plate, the compound stock solution is diluted serially (the concentration is halved at each step) to obtain the following final concentrations after addition of the bacteria suspension: 1 mg/mL; 0.5 mg/mL; 0.25 mg/mL; 0.125 mg/mL; 0.065 mg/mL; 0.032 mg/mL; 0.016 mg/mL; 0.008 mg/mL; 0.004 mg/mL; 0.002 mg/mL; 0.001 mg/mL. A compound-free medium is used as a growth control. A volume of bacterial suspension equal to 0.5*10^6 bacteria/mL is added to each well containing the compound and the control. The dish is incubated at 37° C. for 24 hours. Bacterial growth in each well is detected by the phenol red, which turns from red to yellow following acidification of the medium induced by bacterial metabolism. The lowest concentration of the compound causing no evident color change corresponds to the MIC.
(§4) The compounds according to Examples 1, 3, 5, 6, and 7 were tested on bacterial strains different from S. mutans with the same methods described above, obtaining the MIC and MBC values reported in Table 2.

S. Aureus (ATCC 25923) [2] = test: as above; settings: Staphylococcus aureus, ATCC25923
Description: as §1, §2, §3, §4

S. Mitis (ATCC 49456) [3] = test: as above; settings: Streptococcus mitis, ATCC49456
Description: as §1, §2, §3, §4

S. Sanguis (ATCC 10556) [4] = test: as above
Description: as §1, §2, §3, §4

S. mutans (ATCC 25175) = test: as above; settings: Streptococcus mutans, ATCC25175; for MIC: against S. Mutans
Description: as §1, §2, §3
In order to test the antibacterial properties of the compounds prepared in Examples 1-8, on colonies of S. mutans (ATCC 25175), a bacterium commonly found in the human oral cavity, a test was set up to determine the minimum inhibitory concentration (MIC) and the minimum bactericidal concentration (MBC) according to the “Determination of minimum inhibitory concentration (MIC)” methods and “Determination of minimum bactericidal concentration (MBC)” described above.

E. coli (ATCC25922) [5] = test: Determination of the minimum bactericidal concentration (MBC)
Description: (§5) A 20 mg/mL compound stock solution in BHI medium is prepared. In a 96-well plate, the compound solution is diluted serially (the concentration is halved at each step) to obtain the following final concentrations after addition of the bacteria suspension: 10 mg/mL; 5 mg/mL; 2.5 mg/mL; 1.25 mg/mL; 0.625 mg/mL; 0.31 mg/mL; 0.15 mg/mL; 0.08 mg/mL; 0.04 mg/mL; 0.02 mg/mL. Wells containing a mixture of penicillin and streptomycin antibiotics are used as a positive control. Compound-free medium is used as a growth control. A volume of bacterial suspension equal to 0.5*10^6 bacteria/mL is added to each well containing the compound and the controls. The dish is incubated at 37° C. for 24 hours. The lowest compound concentration at which no turbidity of the culture medium is evident is defined as MIC. For the calculation of MBC, aliquots equal to 50 μL are taken from the wells showing evident no turbidity of the medium and are plated on BHI agar plates for 48 hours. […] Bacterial suspensions taken from the positive control (growth medium only) and the negative control (growth medium with Ampicilin 100 μg/mL) are also seeded.
as §4

S. Aureus (ATCC 25923) [6] = test: as above
Description: as §5, §4

S. Mitis (ATCC 49456) [7] = test: as above
Description: as §5, §4

S. Sanguis (ATCC 10556) [8] = test: as above
Description: as §5, §4

bacteria grown on agar = test: Determination of bacterial inhibition - agar diffusion test of primer formulations; settings: for zone of inhibition at 5 % strength: 5% by weight of compound; for zone of inhibition at 10 % strength: 10% by weight of compound
From the text: A test adapted from a commonly used method for determining the sensitivity of a bacterial strain to antibiotics in solution, known as Kirby-Bauer antibiotic testing or disc diffusion antibiotic sensitivity testing was used (Brown D F, Kothari D (1975), “Comparison of antibiotic discs from different sources”, J. Clin. Pathol. 28 (10): 779-83. Doi: 10.1136 /jcp.28.10.779). The test performed involves the use of discs imbued with a known concentration of the substance under examination that are placed on a layer of bacteria grown on agar. The diffusion of the bactericidal molecule from the disk into the agar causes the inhibition of bacterial growth in the area surrounding the disk itself where the molecule has spread with the formation of what are called zones of growth inhibition. The diameter of these inhibition zones (transparent circular regions in comparison to the bacterial film) is proportional to the antibacterial efficacy of the molecule to its concentration and to its diffusion ability in the medium.
The bactericidal properties of the compounds according to Examples 1, 3, 5, 6 and 7 were tested in various primer-type preparations, using the method “Bacterial inhibition determination-Agar diffusion test” described above. The disk soaked in the tested primer formulation without addition of compounds according to Examples 1, 3, 5, 6 and 7 was used as a negative reference.
For the tests, the following primer-type formulations were used, identified by the following codes: […]

[9] = primer L1B, 1% by weight of compound
[10] = primer L3, 1% by weight of compound
[11] = primer PaA, 1% by weight of compound

Compound	MIC (E. coli (ATCC25922) [1]) [µg/mL]	MIC (S. Aureus (ATCC 25923) [2]) [µg/mL]	MIC (S. Mitis (ATCC 49456) [3]) [µg/mL]	MIC (S. Sanguis (ATCC 10556) [4]) [µg/mL]	MIC (S. mutans (ATCC 25175)) [µg/mL]	MCB (E. coli (ATCC25922) [5]) [mg/mL]	MCB (S. Aureus (ATCC 25923) [6]) [mg/mL]	MCB (S. Mitis (ATCC 49456) [7]) [mg/mL]	MCB (S. Sanguis (ATCC 10556) [8]) [mg/mL]	zone of inhibition at 1 % strength (bacteria grown on agar; [9]) [mm]	zone of inhibition at 1 % strength (bacteria grown on agar; [10]) [mm]	zone of inhibition at 1 % strength (bacteria grown on agar; [11]) [mm]	other results
C=C(C)C(=O)OCC[N+](C)(C)CCCCCCCCCCCC[N+](C)(C)CCOC(=O)C(=C)C.[Br-].[Br-] [Example 1]	625	156	310	310	150	0.625	0.156	0.62	0.62	5	–	–	zone of inhibition at 1 % strength (bacteria grown on agar; primer L1A, 1% by weight of compound): 15 mm; zone of inhibition at 5 % strength (bacteria grown on agar; primer L1A): 20 mm; zone of inhibition at 10 % strength (bacteria grown on agar; primer L1A): 25 mm; zone of inhibition at 5 % strength (bacteria grown on agar; primer L1B): 15 mm; zone of inhibition at 10 % strength (bacteria grown on agar; primer L1B): 19 mm; zone of inhibition at 1 % strength (bacteria grown on agar; primer L1C, 1% by weight of compound): 10 mm; zone of inhibition at 5 % strength (bacteria grown on agar; primer L1C): 15 mm; zone of inhibition at 10 % strength (bacteria grown on agar; primer L1C): 20 mm
C=C(C)C(=O)OCC[N+](CC)(CC)CCCCCCCCCCCC[N+](CC)(CC)CCOC(=O)C(=C)C.[Br-].[Br-] [Example 5]	78	20	39	20	10 to 20	0.156	0.039	0.039	0.039	14	13	12	–
C=C(C)C(=O)Nc1ccc([N+](C)(C)CCCCCCCCCCCC[N+](C)(C)c2ccc(NC(=O)C(C)=O)cc2)cc1.[Br-].[Br-] [Example 6]	2	10	10	5	5	0.002	0.01	0.01	0.005	14	15	15	MBC (S. mutans (ATCC 25175); against the analyzed bacteria strains): 5 to 10 µg/mL
C=C(C)C(=O)NCc1cc[n+](CCCCCCCCCCCC[n+]2ccc(CNC(=O)C(=C)C)cc2)cc1.[Br-].[Br-] [Example 7]	2.5	2.5	20	10	2.5	0.0025	0.005	0.02	0.02	17	14	13	–
